Laboratory results reported in ChEMBL document CHEMBL1201861, “Genomics of Drug Sensitity in Cancer screening data, Wellcome Trust Sanger Institute”.

Experiments:
HN = assay: cells; type: functional, cell-based, Homo sapiens; conditions: Homo sapiens, HN
Description: SANGER: Inhibition of human HN cell growth in a cell viability assay.

HCC1954 = assay: cells; type: functional, cell-based, Homo sapiens; conditions: Homo sapiens, HCC1954;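 also: growth inhibition of human HCC1954 cells, read out with a cell viability assay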
Description: SANGER: Inhibition of human HCC1954 cell growth in a cell viability assay.

HuCCT-1 = assay: cells; type: functional, cell-based, Homo sapiens, HuCCT1; conditions: Homo sapiens, HuCCT-1;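 also: growth inhibition of HuCCT-1 cells, read out by a cell viability assay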
Description: SANGER: Inhibition of human HuCCT1 cell growth in a cell viability assay.

SW-620 = assay: cells; type: functional, cell-based, Homo sapiens; conditions: Homo sapiens, SW-620;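 also: growth inhibition of human SW-620 cells, measured by a cell viability assay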
Description: SANGER: Inhibition of human SW620 cell growth in a cell viability assay.

HGC-27 = assay: cells; type: functional, cell-based, Homo sapiens; conditions: Homo sapiens, HGC-27;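 also: growth inhibition of human HGC-27 cells, read out in a cell viability assay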
Description: SANGER: Inhibition of human HGC-27 cell growth in a cell viability assay.

SW13 = assay: cells; type: functional, cell-based, Homo sapiens; conditions: Homo sapiens, SW13;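 also: IC50 is inhibition of SW13 cell growth, read out with a cell viability assay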
Description: SANGER: Inhibition of human SW13 cell growth in a cell viability assay.

HuP-T3 = assay: cells; type: functional, cell-based, Homo sapiens; conditions: Homo sapiens, HuP-T3;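 also: HuP-T3 cell growth inhibition, read out with a cell viability assay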
Description: SANGER: Inhibition of human HuP-T3 cell growth in a cell viability assay.

T47D = assay: cells; type: functional, cell-based, Homo sapiens; conditions: Homo sapiens, T47D;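 also: growth inhibition of human T47D cells, measured with a cell viability assay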
Description: SANGER: Inhibition of human T47D cell growth in a cell viability assay.

SK-LU-1 = assay: cells; type: functional, cell-based, Homo sapiens; conditions: Homo sapiens, SK-LU-1;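 also: cell viability assay measuring growth inhibition of human SK-LU-1 cells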
Description: SANGER: Inhibition of human SK-LU-1 cell growth in a cell viability assay.

BFTC-909 = assay: cells; type: functional, cell-based, Homo sapiens; conditions: Homo sapiens, BFTC-909
Description: SANGER: Inhibition of human BFTC-909 cell growth in a cell viability assay.

TUR = assay: cells; type: functional, cell-based, Homo sapiens; conditions: Homo sapiens, TUR;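 also: growth inhibition of human TUR cells, read out with a cell viability assay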
Description: SANGER: Inhibition of human TUR cell growth in a cell viability assay.

SAS = assay: cells; type: functional, cell-based, Homo sapiens; conditions: Homo sapiens, SAS;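 also: growth inhibition of SAS cells, read out with a cell viability assay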
Description: SANGER: Inhibition of human SAS cell growth in a cell viability assay.

PC-14 = assay: cells; type: functional, cell-based, Homo sapiens; conditions: Homo sapiens, PC-14;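 also: cell viability assay measuring inhibition of PC-14 cell growth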
Description: SANGER: Inhibition of human PC-14 cell growth in a cell viability assay.

YAPC = assay: cells; type: functional, cell-based, Homo sapiens; conditions: Homo sapiens, YAPC;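 also: growth inhibition of YAPC cells, measured with a cell viability assay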
Description: SANGER: Inhibition of human YAPC cell growth in a cell viability assay.

NCI-H187 = assay: cells; type: functional, cell-based, Homo sapiens; conditions: Homo sapiens, NCI-H187;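 also: growth inhibition of NCI-H187 cells, read out as cell viability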
Description: SANGER: Inhibition of human NCI-H187 cell growth in a cell viability assay.

HO-1-N-1 = assay: cells; type: functional, cell-based, Homo sapiens; conditions: Homo sapiens, HO-1-N-1;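 also: growth inhibition of human HO-1-N-1 cells, read out with a cell viability assay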
Description: SANGER: Inhibition of human HO-1-N-1 cell growth in a cell viability assay.

SW780 = assay: cells; type: functional, cell-based, Homo sapiens; conditions: Homo sapiens, SW780;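 also: growth inhibition of the cells, read out with a cell viability assay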
Description: SANGER: Inhibition of human SW780 cell growth in a cell viability assay.

GCT = assay: cells; type: functional, cell-based, Homo sapiens; conditions: Homo sapiens, GCT;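 also: GCT cell line proliferation inhibition, read out with a cell viability assay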
Description: SANGER: Inhibition of human GCT cell growth in a cell viability assay.

VMRC-RCZ = assay: cells; type: functional, cell-based, Homo sapiens; conditions: Homo sapiens, VMRC-RCZ
Description: SANGER: Inhibition of human VMRC-RCZ cell growth in a cell viability assay.

MEL-HO = assay: cells; type: functional, cell-based, Homo sapiens; conditions: Homo sapiens, MEL-HO
Description: SANGER: Inhibition of human MEL-HO cell growth in a cell viability assay.

SF-295 = assay: cells; type: functional, cell-based, Homo sapiens; conditions: Homo sapiens, SF-295;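 also: growth inhibition of SF-295 cells, read out with a cell viability assay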
Description: SANGER: Inhibition of human SF295 cell growth in a cell viability assay.

MKN-7 = assay: cells; type: functional, cell-based, Homo sapiens; conditions: Homo sapiens, MKN-7;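 also: growth inhibition of MKN-7 cells, read out with a cell viability assay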
Description: SANGER: Inhibition of human MKN7 cell growth in a cell viability assay.

DOK = assay: cells; type: functional, cell-based, Homo sapiens; conditions: Homo sapiens, DOK;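 also: cell viability assay read-out, values reflect inhibition of cell growth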
Description: SANGER: Inhibition of human DOK cell growth in a cell viability assay.

UACC-62 = assay: cells; type: functional, cell-based, Homo sapiens; conditions: Homo sapiens, UACC-62;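 also: growth inhibition of human UACC-62 cells, read out by a cell viability assay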
Description: SANGER: Inhibition of human UACC-62 cell growth in a cell viability assay.

THP-1 = assay: cells; type: functional, cell-based, Homo sapiens; conditions: Homo sapiens, THP-1;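 also: growth inhibition of THP-1 cells, read out via a cell viability assay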
Description: SANGER: Inhibition of human THP-1 cell growth in a cell viability assay.

BOKU = assay: cells; type: functional, cell-based, Homo sapiens; conditions: Homo sapiens, BOKU;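 also: growth inhibition of the human BOKU cell line, read out by a cell viability assay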
Description: SANGER: Inhibition of human BOKU cell growth in a cell viability assay.

SK-MM-2 = assay: cells; type: functional, cell-based, Homo sapiens; conditions: Homo sapiens, SK-MM-2;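 also: growth inhibition of human SK-MM-2 cells, read out with a cell viability assay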
Description: SANGER: Inhibition of human SK-MM-2 cell growth in a cell viability assay.

SW1783 = assay: cells; type: functional, cell-based, Homo sapiens; conditions: Homo sapiens, SW1783
Description: SANGER: Inhibition of human SW1783 cell growth in a cell viability assay.

NCI-H520 = assay: cells; type: functional, cell-based, Homo sapiens; conditions: Homo sapiens, NCI-H520;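 also: growth inhibition of NCI-H520 cells, measured by a cell viability assay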
Description: SANGER: Inhibition of human NCI-H520 cell growth in a cell viability assay.

DK-MG = assay: cells; type: functional, cell-based, Homo sapiens; conditions: Homo sapiens, DK-MG;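 also: growth inhibition of DK-MG cells, read out with a cell viability assay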
Description: SANGER: Inhibition of human DK-MG cell growth in a cell viability assay.

EVSA-T = assay: cells; type: functional, cell-based, Homo sapiens; conditions: Homo sapiens, EVSA-T;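 also: growth inhibition of EVSA-T cells, read out with a cell viability assay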
Description: SANGER: Inhibition of human EVSA-T cell growth in a cell viability assay.

CMK = assay: cells; type: functional, cell-based, Homo sapiens; conditions: Homo sapiens, CMK;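 also: growth inhibition of CMK cells, read out as cell viability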
Description: SANGER: Inhibition of human CMK cell growth in a cell viability assay.

SW756 = assay: cells; type: functional, cell-based, Homo sapiens; conditions: Homo sapiens, SW756;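 also: growth inhibition of human SW756 cells, read out with a cell viability assay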
Description: SANGER: Inhibition of human SW756 cell growth in a cell viability assay.

KYSE-270 = assay: cells; type: functional, cell-based, Homo sapiens; conditions: Homo sapiens, KYSE-270;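 also: cell growth inhibition measured with a viability assay in the human KYSE-270 line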
Description: SANGER: Inhibition of human KYSE-270 cell growth in a cell viability assay.

A-431 = assay: cells; type: functional, cell-based, Homo sapiens; conditions: Homo sapiens, A-431;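 also: growth inhibition of A-431 cells, determined with a cell viability read-out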
Description: SANGER: Inhibition of human A431 cell growth in a cell viability assay.

ChaGo-K-1 = assay: cells; type: functional, cell-based, Homo sapiens; conditions: Homo sapiens, ChaGo-K-1;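 also: growth inhibition of ChaGo-K-1 cells, read out with a cell viability assay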
Description: SANGER: Inhibition of human ChaGo-K-1 cell growth in a cell viability assay.

UMUC3 = assay: cells; type: functional, cell-based, Homo sapiens; conditions: Homo sapiens, UMUC3;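 also: growth inhibition of human UM-UC-3 cells, read out with a cell viability assay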
Description: SANGER: Inhibition of human UM-UC-3 cell growth in a cell viability assay.

SK-MES-1 = assay: cells; type: functional, cell-based, Homo sapiens; conditions: Homo sapiens, SK-MES-1;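 also: growth inhibition of human SK-MES-1 cells, read out with a cell viability assay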
Description: SANGER: Inhibition of human SK-MES-1 cell growth in a cell viability assay.

NY = assay: cells; type: functional, cell-based, Homo sapiens; conditions: Homo sapiens, NY
Description: SANGER: Inhibition of human NY cell growth in a cell viability assay.

COR-L23 = assay: cells; type: functional, cell-based, Homo sapiens; conditions: Homo sapiens, COR-L23;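 also: cell viability assay measuring how strongly compounds suppress growth of COR-L23 cells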
Description: SANGER: Inhibition of human COR-L23 cell growth in a cell viability assay.

SR = assay: cells; type: functional, cell-based, Homo sapiens; conditions: Homo sapiens, SR
Description: SANGER: Inhibition of human SR cell growth in a cell viability assay.

CESS = assay: SANGER: Inhibition of human CESS cell growth in a cell viability assay.; type: functional, cell-based; conditions: Homo sapiens, CESS
NCI-H1693 = assay: cells; type: functional, cell-based, Homo sapiens; conditions: Homo sapiens, NCI-H1693;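 also: growth inhibition of the human cell line, read out with a cell viability assay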
Description: SANGER: Inhibition of human NCI-H1693 cell growth in a cell viability assay.

RCM-1 = assay: cells; type: functional, cell-based, Homo sapiens; conditions: Homo sapiens, RCM-1;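 also: growth inhibition of the RCM-1 line, determined with a cell viability readout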
Description: SANGER: Inhibition of human RCM-1 cell growth in a cell viability assay.

BC1 cell line = assay: SANGER: Inhibition of human BC-1 cell growth in a cell viability assay.; type: functional, cell-based; conditions: Homo sapiens, BC1

SMILES: C=C(c1ccc(C(=O)O)cc1)c1cc2c(cc1C)C(C)(C)CCC2(C)C [BEXAROTENE]
- IC50 (HN): > 8000 nM
- IC50 (HCC1954): > 8000 nM
- IC50 (HuCCT-1): > 8000 nM
- IC50 (SW-620): > 8000 nM
- IC50 (HGC-27): > 8000 nM
- IC50 (SW13): > 8000 nM
- IC50 (HuP-T3): > 8000 nM
- IC50 (T47D): > 8000 nM
- IC50 (SK-LU-1): > 8000 nM
- IC50 (BFTC-909): > 8000 nM
- IC50 (TUR): > 8000 nM
- IC50 (SAS): > 8000 nM
- IC50 (PC-14): > 8000 nM
- IC50 (YAPC): > 8000 nM
- IC50 (NCI-H187): > 8000 nM
- IC50 (HO-1-N-1): > 8000 nM
- IC50 (SW780): > 8000 nM
- IC50 (GCT): > 8000 nM
- IC50 (VMRC-RCZ): > 8000 nM
- IC50 (MEL-HO): 531 nM
- IC50 (SF-295): 5170 nM
- IC50 (MKN-7): > 8000 nM
- IC50 (DOK): > 8000 nM
- IC50 (UACC-62): > 8000 nM
- IC50 (THP-1): > 8000 nM
- IC50 (BOKU): > 8000 nM
- IC50 (SK-MM-2): > 8000 nM
- IC50 (SW1783): > 8000 nM
- IC50 (NCI-H520): > 8000 nM
- IC50 (DK-MG): 51.2 nM
- IC50 (EVSA-T): > 8000 nM
- IC50 (CMK): > 8000 nM
- IC50 (SW756): > 8000 nM
- IC50 (KYSE-270): > 8000 nM
- IC50 (A-431): > 8000 nM
- IC50 (ChaGo-K-1): > 8000 nM
- IC50 (UMUC3): > 8000 nM
- IC50 (SK-MES-1): > 8000 nM
- IC50 (NY): > 8000 nM
- IC50 (COR-L23): > 8000 nM
- IC50 (SR): > 8000 nM
- IC50 (CESS): > 8000 nM
- IC50 (NCI-H1693): > 8000 nM
- IC50 (RCM-1): > 8000 nM
- IC50 (BC1 cell line): > 8000 nM

SMILES: CCC/C=C/C=C/C(=O)O[C@H]1/C(=C/C(=O)OC)C[C@H]2C[C@H]([C@@H](C)O)OC(=O)C[C@H](O)C[C@@H]3C[C@H](OC(C)=O)C(C)(C)[C@](O)(C[C@@H]4C/C(=C/C(=O)OC)C[C@H](/C=C/C(C)(C)[C@]1(O)O2)O4)O3 [BRYOSTATIN 1]
- IC50 (HN): > 8 nM
- IC50 (HCC1954): > 8 nM
- IC50 (HuCCT-1): > 8 nM
- IC50 (SW-620): > 8 nM
- IC50 (HGC-27): > 8 nM
- IC50 (SW13): > 8 nM
- IC50 (HuP-T3): > 8 nM
- IC50 (T47D): > 8 nM
- IC50 (SK-LU-1): > 8 nM
- IC50 (BFTC-909): > 8 nM
- IC50 (TUR): > 8 nM
- IC50 (SAS): > 8 nM
- IC50 (PC-14): > 8 nM
- IC50 (YAPC): > 8 nM
- IC50 (NCI-H187): > 8 nM
- IC50 (HO-1-N-1): > 8 nM
- IC50 (SW780): > 8 nM
- IC50 (GCT): > 8 nM
- IC50 (VMRC-RCZ): > 8 nM
- IC50 (MEL-HO): > 8 nM
- IC50 (SF-295): > 8 nM
- IC50 (MKN-7): > 8 nM
- IC50 (DOK): > 8 nM
- IC50 (UACC-62): > 8 nM
- IC50 (THP-1): > 8 nM
- IC50 (BOKU): > 8 nM
- IC50 (SK-MM-2): > 8 nM
- IC50 (SW1783): > 8 nM
- IC50 (NCI-H520): > 8 nM
- IC50 (DK-MG): > 8 nM
- IC50 (EVSA-T): > 8 nM
- IC50 (CMK): > 8 nM
- IC50 (SW756): > 8 nM
- IC50 (KYSE-270): > 8 nM
- IC50 (A-431): > 8 nM
- IC50 (ChaGo-K-1): > 8 nM
- IC50 (UMUC3): > 8 nM
- IC50 (SK-MES-1): > 8 nM
- IC50 (NY): > 8 nM
- IC50 (COR-L23): > 8 nM
- IC50 (SR): > 8 nM
- IC50 (CESS): > 8 nM
- IC50 (NCI-H1693): > 8 nM
- IC50 (RCM-1): > 8 nM
- IC50 (BC1 cell line): > 8 nM

SMILES: COc1cccc2c1C(=O)c1c(O)c3c(c(O)c1C2=O)C[C@@](O)(C(=O)CO)C[C@@H]3O[C@H]1C[C@H](N)[C@H](O)[C@H](C)O1 [DOXORUBICIN]
- IC50 (HN): 354 nM
- IC50 (HCC1954): 541 nM
- IC50 (HuCCT-1): 72.9 nM
- IC50 (SW-620): 26.6 nM
- IC50 (HGC-27): 13.6 nM
- IC50 (SW13): 115 nM
- IC50 (HuP-T3): 166 nM
- IC50 (T47D): 470 nM
- IC50 (SK-LU-1): 12.5 nM
- IC50 (BFTC-909): 118 nM
- IC50 (TUR): 76.3 nM
- IC50 (SAS): 114 nM
- IC50 (PC-14): 236 nM
- IC50 (YAPC): > 1020 nM
- IC50 (NCI-H187): 493 nM
- IC50 (HO-1-N-1): 223 nM
- IC50 (SW780): > 1020 nM
- IC50 (GCT): 861 nM
- IC50 (VMRC-RCZ): 93.3 nM
- IC50 (MEL-HO): 18.3 nM
- IC50 (SF-295): 49.1 nM
- IC50 (MKN-7): 690 nM
- IC50 (DOK): 1020 nM
- IC50 (UACC-62): > 1020 nM
- IC50 (THP-1): 989 nM
- IC50 (BOKU): 111 nM
- IC50 (SK-MM-2): 942 nM
- IC50 (SW1783): 98 nM
- IC50 (NCI-H520): 267 nM
- IC50 (DK-MG): > 1020 nM
- IC50 (EVSA-T): > 1020 nM
- IC50 (CMK): 77.4 nM
- IC50 (SW756): 275 nM
- IC50 (KYSE-270): 7.21 nM
- IC50 (A-431): 20.9 nM
- IC50 (ChaGo-K-1): 108 nM
- IC50 (UMUC3): 86 nM
- IC50 (SK-MES-1): 31.5 nM
- IC50 (NY): 228 nM
- IC50 (COR-L23): 32 nM
- IC50 (SR): 24.4 nM
- IC50 (CESS): 39.4 nM
- IC50 (NCI-H1693): 290 nM
- IC50 (RCM-1): > 1020 nM
- IC50 (BC1 cell line): 86.8 nM
